Data published in PMC7998705, “Dose-Dependent Solubility–Permeability Interplay for Poorly Soluble Drugs under Non-Sink Conditions” (Pharmaceutics, 2021).
Converted amounts (≈) assume the structure as drawn.

Assays:
[1] = Flux measurements by MicroFlux; details: for Papp: not told, sink conditions, average ± SD (n = 3); for Flux in pH 6.5 buffer + 0.05% SLS compared with pH 6.5 buffer: sink conditions (5 μg/mL griseofulvin, 100 μg/mL triamcinolone)
Procedure: (§1) The concentration–time profiles were determined via manual sampling from the donor chambers and acceptor chambers during flux measurements. At 0, 30, 60, 120, 240, and 360 min, 100 μL of the acceptor chamber solution was withdrawn and diluted to 100 μL (2× dilution) of 3:2 DMA:ethylene glycol (v/v). At the same time point, 400 μL of the donor chamber solution was withdrawn and filtered through a polytetrafluoroethylene (PTFE) membrane filter of 0.22 μm pose size. Then, 100 μL of the filtered solution was diluted to 100 μL (2× dilution) of 3:2 DMA:ethylene glycol (v/v). The sample concentration was determined by ultra-high-performance liquid chromatography (UHPLC).
From the obtained concentration–time profiles in the acceptor chambers, the flux (J) was calculated. The flux refers to the mass transfer through the membrane, and it is defined as the total amount of material crossing one unit area of the membrane per unit time, as described by Equation (11):(11) J (t)=1/A·dm/dt= V/A·dC(t)/dt where dm/dt (μg/mL) is the total amount of material crossing the membrane per unit time, A is the area of the membrane (1.54 cm^2), V is the volume of the acceptor chamber (20 mL), and dC(t)/dt (μg/(mL⋅min)) is the slope of the concentration–time profiles in the acceptor chambers. Time intervals were selected in each test to exclude the lag time of the concentration–time profile and calculate the initial flux. […] Based on Fick’s first law, assuming the sink condition in the acceptor chambers, the flux can be described by Equation (12):(12) J (t)=PappCD(t) where Papp is the apparent permeability of drugs and CD (t) is the drug concentration in the donor chambers.
The sample concentrations were measured on a Waters (Milford, MA) Acquity UPLC H-Class system. An Acquity UPLC® BEH Shield RP18 1.7 μm, 2.1 × 50 mm, was used for chromatographic separation. A gradient mobile phase, spanning 95:5 to 0:100 (v/v) water:MeCN (both containing 0.05%TFA) over 2.0 min, was pumped at a flow rate of 1.0 mL/min. […] The injection volume and ultraviolet (UV) wavelength for triamcinolone were 1 μL and 292 nm, respectively.

physchem = details: 37 °C, thermodynamic from solid
Procedure: as §1
(§2) The sample concentrations were measured on a Waters (Milford, MA) Acquity UPLC H-Class system. An Acquity UPLC® BEH Shield RP18 1.7 μm, 2.1 × 50 mm, was used for chromatographic separation. A gradient mobile phase, spanning 95:5 to 0:100 (v/v) water:MeCN (both containing 0.05%TFA) over 2.0 min, was pumped at a flow rate of 1.0 mL/min.

[2] = pH 6.5
Procedure: as §1, §2

[3] = set-up: method as in PMID 20006692; details: 500 mg dose; cited from earlier work
[4] = 37 °C; cited from earlier work
[5] = Theoretical calculation about permeability; details: for Apparent permeability and flux reduced to (fraction): calculated, sink conditions, donor 5 μg/mL; for Papp: not told; for Calculated Pm (app): Equation (3); for Calculated Daq (app): Equation (5), hUWL (app) = 100 μm; for Calculated Pm (U): pH 6.5 buffer
Procedure: Based on Fick’s first law, flux in the drug permeation can be expressed as shown in Equation (1): [36, 43]
As described in the introduction, overall permeation can be divided into membrane permeation and UWL permeation.
Pm (app) is calculated using the fraction of UFDs (FU) as shown in Equation (3):(3) Pm (app)= FUPm (U) where Pm (U) is the intrinsic permeability of UFDs.
PUWL (app) can be expressed using the apparent aqueous diffusivity (Daq (app)) from Fick’s first law as shown in Equation (5): (5) PUWL (app)= Daq (app)/hUWL (app) where hUWL (app) is the apparent thickness of the UWL. When there are no solubilizer additives in the drug formulation or test media in the permeability measurements, Equation (5) can be described as shown in Equation (6):(6) PUWL (U)= Daq (U)/hUWL (U) where hUWL (U) is the intrinsic thickness of the UWL and Daq (U) is the intrinsic aqueous diffusivity of UFDs. The thickness of the UWL can be determined based on rotation speed in the flux experiment. If the rotation speed is constant, we can assume that the thickness of the UWL is constant, independent of the addition of solubilizer additives, as shown in Equation (7):(7) hUWL (app)= hUWL (U)
Substituting hUWL (app) of Equation (5) and hUWL (U) of Equation (6) for Equation (7), PUWL (app) is described as shown in Equation (8):(8) PUWL (app)= PUWL (U)×Daq (app)/Daq (U)
The apparent aqueous diffusivity (Daq (app)) is a combined total of each fraction of aqueous diffusivity as shown in Equation (9):(9) Daq (app)= FUDaq (U) + (1−FU)Daq (B) where FU is the same fraction of UFDs as in Equation (4) and Daq (B) is the aqueous diffusivity of drug molecules bound to solubilizer additives. PUWL (app) can be calculated by Equations (6), (8), and (9) as shown in Equation (10):(10) PUWL (app)= 1/hUWL (app) {FUDaq(U) + (1−FU)Daq (B)}
Using the MW of the model compounds, each Daq (U) was calculated (calculated Daq (U) in Table 4). The UWL thickness (hUWL (app) or hUWL (U)) for the MicroFlux^TM measurements in this study was estimated to be around 100 μm based on previous studies. The intrinsic UWL permeability of UFDs (PUWL (U)) was then calculated by Equation (6) (calculated PUWL (U) in Table 4).
The apparent membrane permeability (Pm (app)) was calculated by Equation (3) using the fraction of UFDs (FU) in Table 3 and Pm (U) (calculated Pm (app) in Table 5). […] The apparent aqueous diffusivity (Daq (app)) was calculated by Equation (5) using PUWL (app) and hUWL (app) = 100 μm (calculated Daq (app) in Table 5). Substituting FU, Daq (app), and Daq (U) in Equation (9), the aqueous diffusivity of drug molecules bound to SLS (Daq (B)) was calculated (calculated Daq (B) in Table 5). As for triamcinolone, Daq (B) was not calculated in this study. […] As the aggregated number of SLS in aqueous solutions was reported to be 62, their micellar weight appeared to be around 18,000 Da. […] Assuming this micellar size is constant, permeability and flux could be calculated by Equation (10) and Equation (12) using the apparent solubility.
When pH 6.5 buffer is in the donor chamber, the apparent UWL thickness is expressed using Equations (2) and (6) as shown in Equation (14):(14) hUWL (app)=Daq (U)(1/Papp−1/Pm (U))

[6] = set-up: method as in PMID 17724660, PMID 8668668, PMID 1808607; details: partitioning between octanol and water; cited from earlier work
[7] = pH 6.5, Measured Papp (U), pH 6.5 buffer
[8] = pH 6.5, Measured Papp, pH 6.5 buffer + 0.05% SLS
[9] = pH 6.5, pH 6.5 buffer + 0.05% SLS, read-out: Calculated Papp (converted)
[10] = pH 6.5, pH 6.5 buffer, read-out: Calculated Papp (U) (converted)

## COC1=CC(=O)C[C@@H](C)[C@]12Oc1c(Cl)c(OC)cc(OC)c1C2=O [Griseofulvin]
[1]; 50, 200 and 1000 μg/mL doses (non-sink), pH 6.5 buffer
  Sample concentration in the donor chamber: about 10 μg/mL
[1]; 50, 200 and 1000 μg/mL doses (non-sink), pH 6.5 buffer + 0.05% SLS
  Sample concentration in the donor chamber: about 25 μg/mL
[1]; based on Equation (12)
  Apparent permeability in pH 6.5 buffer + 0.05% SLS compared with pH 6.5 buffer: almost half
[1]; donor concentration almost constant
  Increase of total permeated amount when the dose amount exceeded solubility: 20–30%
[1]; non-sink conditions, both pH 6.5 buffer and pH 6.5 buffer + 0.05% SLS
  Flux increase depending on the dose amount: 10–30%
[1]; [7]
  Papp: 247 ×10⁻⁶ cm/s
[1]; [8]
  Papp: 108 ×10⁻⁶ cm/s
[1]
  Flux in pH 6.5 buffer + 0.05% SLS compared with pH 6.5 buffer: almost half
physchem; pH 6.5, aqueous buffer
  solubility: 10.8 ± 0.38 µg/mL (≈ 30.5 µM)
physchem; pH 6.5, aqueous with cosolvent or surfactant or cyclodextrin
  solubility: 27.4 ± 0.07 µg/mL (≈ 77.7 µM)
[2]
  Solubility change by the addition of 0.05% SLS: about 2.5 fold
  UFD Amount: 10.75 µg/mL
[3]
  Increase of in vivo permeability and in vivo drug absorption by solid drugs in the UWL: about twofold
[4]
  Aqueous solubility: 29.9 [40, 41] μg/mL
[5]; apparent solubility increased by 5 times
  Apparent permeability and flux reduced to (fraction): about 1/4
[5]; apparent solubility increased by 10 times
  Apparent permeability and flux reduced to (fraction): 1/7
[5]; drug molecules bound to SLS, Equation (9)
  Calculated Daq (B): 8.37 × 10^−7 cm^2/s
[5]; [9]
  Papp: 108 ×10⁻⁶ cm/s
[5]; [10]
  Papp: 247 ×10⁻⁶ cm/s
[5]; pH 6.5 buffer + 0.05% SLS, Equation (2)
  Calculated PUWL (app): 255 ×10⁻⁶ cm/s
[5]; pH 6.5 buffer + 0.05% SLS
  Calculated Pm (app): 187 ×10⁻⁶ cm/s
  Calculated Daq (app): 2.56 × 10^−6 cm^2/s
[5]; Equation (2)
  Calculated Pm (U): 473 ×10⁻⁶ cm/s

## C[C@]12C=CC(=O)C=C1CC[C@H]1[C@@H]3C[C@@H](O)[C@](O)(C(=O)CO)[C@@]3(C)C[C@H](O)[C@@]12F [Triamcinolone]
[1]; 500, 2000 and 10,000 μg/mL doses (non-sink), pH 6.5 buffer and pH 6.5 buffer + 0.05% SLS
  Sample concentration in the donor chamber: about 200 μg/mL
[1]; [7]
  Papp: 5.07 ×10⁻⁶ cm/s
[1]; [8]
  Papp: 4.38 ×10⁻⁶ cm/s
[1]; pH 6.5 buffer + 0.05% SLS, non-sink conditions
  Flux and donor concentration at the 10,000 μg/mL dose, higher than at 500 and 2000 μg/mL doses: about 10%
[1]
  Flux in pH 6.5 buffer + 0.05% SLS compared with pH 6.5 buffer: almost similar values
[5]; [9]
  Papp: 4.38 ×10⁻⁶ cm/s
[5]; [10]
  Papp: 5.07 ×10⁻⁶ cm/s
[5]; pH 6.5 buffer + 0.05% SLS
  Calculated Pm (app): 5 ×10⁻⁶ cm/s
  Calculated Daq (app): 3.54 × 10^−7 cm^2/s
[5]; Equation (2)
  Calculated Pm (U): 5.12 ×10⁻⁶ cm/s
[5]; Equation (2), listed as triamcinolone
  Calculated Pm (U): around 0.0003 cm/min
[6]
  Log P: 1.03 [40, 42]
